According to patent publication US7906620B2, “Tumor associated antigen, peptides thereof, and use of same as anti-tumor vaccines” (Yeda Research and Development Co. Ltd., priority 2002, dated 2011):

Legend:
[1] = tested on: RMAS-HHD-B7.1 target cells; assay: Immunogenicity in HHD mice after immunization with dendritic cells pulsed with peptide pools; type: in vivo; details: DCs pulsed with pools of 2-4 peptides; effector-to-target ratio 25:1
Protocol: FIGS. 13A and 13B are graphs showing immunogenicity of PAP- or STEAP-derived peptides in HHD mice. The mice were immunized i.v. one time with 1×10^6 peptide-loaded syngeneic dendritic cells (DCs). The DCs were loaded separately with individual peptides, washed and pooled before immunization. Spleens were removed on day 10, and splenocytes were re-stimulated in vitro by 100 μM PAP-derived (FIG. 13A) or STEAP-derived (FIG. 13B) peptides in OPTIMEM for 2 h at 37° C., 5% CO2, followed by restimulation of lymphocytes for 4 more days in RPMI-HEPES, as described. CTL assays were performed on day 5 with individual PAP-, STEAP-derived peptides loaded on RMAS-HHD-B7.1 as targets. Non-relevant HIV derived peptide-loaded RMAS-HHD-B7.1 cells were used as negative controls. The effector-to-target ratio of 25:1 is shown.
(§1) The immunogenicity of the peptides, namely their potential to induce T cell responses, was subsequently examined in an in vivo model. A strain of β2 microglobulin (β2m) HLA-A2.1 Monochain Transgenic, H-2D^b−/−Xβ2m^−/− double knockout mice (HHD mice) was used. Upon vaccination of these mice, a repertoire of human HLA-A2.1 restricted CTLs is produced. The lysis patterns of each of the individual peptides loaded on target cells were first evaluated following immunization with syngeneic dendritic cells pulsed with pools of 2-4 synthetic peptides derived from each examined protein.

EL-4-HHD target cells = assay: Immunogenicity in HHD mice after immunization with single peptide-loaded RMAS-HHD-B7.1 cells; type: in vivo; details: single peptide immunization i.p. three times; E:T 100:1 to 12.5:1
Protocol: FIGS. 14A and 14B are graphs showing immunogenicity of PAP-3 (FIG. 14A) and STEAP-3 (FIG. 14B) peptides in HHD mice. Mice immunized i.p. three times at 7-day intervals, with 2×10^6 irradiated (5000 rad) were single peptide-loaded (PAP-3 for FIG. 14A, STEAP-3 for FIG. 14B) TAP-2 deficient RMAS-HHD-B7.1 cells. Spleens were removed on day 10, and splenocytes were restimulated in vitro by 100 μM PAP-3 or STEAP-3 peptides in OPTIMEM for 2 h at 37° C., 5% CO2, followed by restimulation of lymphocytes for 4 more days in RPMI-HEPES, as described. CTL assays were performed on day 5 with PAP-3 or STEAP-3 loaded on EL4-HHD as targets. Unloaded EL4-HHD or non-relevant HIV derived peptide-loaded EL4-HHD cells were used as negative controls. The effector-to-target ratios of 100:1; 50:1; 25:1; 12.5:1 are shown.
as §1

LNCaP = assay: Lysis of LNCaP tumor cells by human anti-peptide CTL; type: cell-based; details: LNCaP high and low HLA expressors as targets
Source text: FIGS. 18A-18E are graphs showing that human anti-peptide CTL from a healthy donor kills LNCaP tumor cells. PBMC from a healthy donor (FIGS. 18A-18C) or a CaP patient (FIGS. 18D-18E) were stimulated with PAP-3 (FIGS. 18A, 18D), STEAP-3 (FIGS. 18B, 18E) or PSGR-1 (FIG. 18C) as described. LNCaP/CRL1740 (LNCaP high in HLA-A2.1 expression), LNCaP/CRL10995 (LNCaP low in HLA-A2.1 expression) and PC3 (negative for HLA-A2.1) served as targets in CTL assays.
When human PBMC are stimulated in vitro by PAP-3 and STEAP-3 peptides, the resulting CTL can lyse target cells (T2, EL4/HHD) pulsed with PAP-3, STEAP-3 or PSGR-1 and PSGR-6 peptides. (FIGS. 15 and 16). Here, these findings were expanded and peripheral blood of three healthy and two CaP individuals was tested for the existence of CTL precursors against PAP-3, STEAP-3 and PSGR-1 peptides. Leukopheresis products of the donors were obtained from Barzilai Medical Center (Ashkelon, Israel) according to Declaration of Helsinki Principles. PBMC were isolated by centrifugation on Ficoll-Plaque Plus gradients (Amersham, Sweden). In vitro priming of CTL was done over autologous DC that were prepared from monocytes by IL-4 and GM-CSF treatment and matured with a IL-1β, IL-6, TNF-α and PGE2 cocktail. DC were pulsed with synthetic peptides and PBMC were supplemented with IL-7. Two days later, IL-2 was added and renewed every three days. Two additional re-stimulations were done every 7 days over peptide pulsed monocytes. Seven days after the third stimulation, lymphocytes were harvested and a cytolytic assay was performed using relevant/non-relevant peptide pulsed or non-pulsed T2 cells (FIGS. 17A-17C) and LNCaP (high and low HLA expressors) cells as targets (FIGS. 18A-18E). […] Monitoring of HLA-A2-peptide specific CD8+ cells for PAP-3 and STEAP-3 was also performed by MHC-peptide tetramers (tetramers of recombinant HLA-A2.1-beta2 microglobulin single chain with peptides were prepared in collaboration with Dr Yoram Reiter, Technion, Haifa). […]

[2] = tested on: HLA-A2-peptide specific CD8+ cells; assay: MHC-peptide tetramer monitoring of HLA-A2-peptide specific CD8+ cells; type: cell-based, human; details: stimulated PBMC, MHC-peptide tetramers

Sequence | lysis of peptide-loaded RMAS-HHD-B7.1 target cells [1] | lysis of peptide-loaded EL-4-HHD target cells (EL-4-HHD target cells) | lysis of tumor cells expressing endogenously processed proteins (LNCaP) | Levels of HLA-A2-peptide specific CD8+ cells [2] [%]
ILLWQPIPV (listed as Homo sapiens) [PAP-3, PAP start position 135] | significant lysis | remarkable and dose-dependent lysis | lyse tumor cells | 1.7
LLLGTIHAL (listed as Homo sapiens) [STEAP-3, STEAP start position 262] | significant lysis | remarkable and dose-dependent lysis | lyse tumor cells | 0.76
